Assay results as given in article PMC10892984, “Novel Antineoplastic Inducers of Mitochondrial Apoptosis in Human Cancer Cells” (Molecules, 2024).

Assays:
HIV-1LAI = HIV-1LAI replication reverse transcriptase assay in primary PBM cells; type: cell-based, human immunodeficiency virus type 1
Description: (§1) The cytotoxicity and human immunodeficiency virus type 1 (HIV-1) strain LAI replication assays were performed in freshly explanted primary human peripheral blood mononuclear cells (PBM cells) according to published procedures. The assays were conducted at least in triplicate and treated statistically (if possible). HIV-1LAI (= HIV-1BRU = LAV-1) was assayed in primary human peripheral blood lymphocyte (PBL) cells in the presence of a drug being evaluated. The parameter for antiviral activity was a reduction in reverse transcriptase (RT) activity in the cell supernatant after Triton X–100-mediated lysis of released virions, as measured using [5α-^3H]dTTP (5α-tritiated thymidine 5′-triphosphate) incorporation into poly(rA)•poly(dT) directed by the primed RNA template poly(rA)•oligo(dT). […] The detailed assay methodology was reported by Schinazi et al. as based on an older assay system of Spira et al.. The experiments were conducted in triplicate and treated statistically using regression curve analysis (r^2 coefficient of determination). The RT inhibitor AZT (zidovudine, 3′-azido-3′-deoxythymidine; RETROVIR™) served as a positive control. Cytotoxicity on PBL and the other cells (CCRF−CEM, Vero) exerted by the test compounds was determined as described by Stuyver et al. by application of the CellTiter 96® AQueous One Solution Cell Proliferation Assay (Promega Corp., Madison, WI, USA). Briefly, the phenazine ethosulfate (PES)-coupled reduction of the tetrazolium salt 3-(4,5-dimethylthiazol-2-yl)-5-(3-carboxymethoxyphenyl)-2-(4-sulfophenyl)-2H-tetrazolium (MTS) to a purple, water-soluble formazan by living, undamaged cells was measured.

[1] = Cytotoxicity (CellTiter 96 AQueous One, MTS); type: cell-based; settings: human; PBM cells
Description: (§2) The cytotoxicity and human immunodeficiency virus type 1 (HIV-1) strain LAI replication assays were performed in freshly explanted primary human peripheral blood mononuclear cells (PBM cells) according to published procedures. The assays were conducted at least in triplicate and treated statistically (if possible). HIV-1LAI (= HIV-1BRU = LAV-1) was assayed in primary human peripheral blood lymphocyte (PBL) cells in the presence of a drug being evaluated. The parameter for antiviral activity was a reduction in reverse transcriptase (RT) activity in the cell supernatant after Triton X–100-mediated lysis of released virions, as measured using [5α-^3H]dTTP (5α-tritiated thymidine 5′-triphosphate) incorporation into poly(rA)•poly(dT) directed by the primed RNA template poly(rA)•oligo(dT). […] Cytotoxicity on PBL and the other cells (CCRF−CEM, Vero) exerted by the test compounds was determined as described by Stuyver et al. by application of the CellTiter 96® AQueous One Solution Cell Proliferation Assay (Promega Corp., Madison, WI, USA). Briefly, the phenazine ethosulfate (PES)-coupled reduction of the tetrazolium salt 3-(4,5-dimethylthiazol-2-yl)-5-(3-carboxymethoxyphenyl)-2-(4-sulfophenyl)-2H-tetrazolium (MTS) to a purple, water-soluble formazan by living, undamaged cells was measured.

[2] = Cytotoxicity (CellTiter 96 AQueous One, MTS); type: cell-based, human; settings: human; CCRF−CEM cells
Description: as §1

[3] = Cytotoxicity (CellTiter 96 AQueous One, MTS); type: cell-based, African green monkey (grivet) Chlorocebus aethiops; settings: African green monkey (Chlorocebus aethiops), Vero cells
Description: as §2

- EC50 (HIV-1LAI; Human immunodeficiency virus 1, PBMC, primary human PBM cells, reverse transcriptase activity in supernatant, read-out: Anti-HIV-1LAI activity EC50): 0.0044 ± 0.0018 µM
- EC90 (HIV-1LAI; Human immunodeficiency virus 1, PBMC, primary human PBM cells, reverse transcriptase activity in supernatant, read-out: Anti-HIV-1LAI activity EC90): 0.031 ± 0.015 µM
SMILES: Cc1cn([C@H]2C[C@H](N=[N+]=[N-])[C@@H](CO)O2)c(=O)[nH]c1=O [AZT, 3′-azido-3′-deoxythymidine, reference compound]
- SI50, selectivity index CC50/EC50 (HIV-1LAI; PBM cells): >22,727
- CC50 [1]: > 100 µM
- CC50 [2]: 14.3 µM
- CC50 [3]: 56 µM
